# Data as given in patent publication US20100311643A1, “USE OF GLP-1 AS A THERAPEUTIC AGENT” (priority 2007, published 2010).
# Assays:
# [1] = Cytotoxicity in the HBV assay (dye uptake cell viability); conditions: human
# Pseudomonas aeruginosa = format: cell-based; conditions: 5 micrograms per ml
# in vitro [2] = conditions: human, CEM-SS cells (uninfected, cells plus peptide only)
# in vitro [3] = conditions: human, MRC-5 cells (embryonal lung fibroblasts)
# MRSA = conditions: 5 micrograms per ml
# Streptococcus pneumoniae = format: cell-based; conditions: 5 micrograms per ml
# HIV-1IIIB = experiment: HIV-1 antiviral assay (CPE reduction, MTS staining); format: cell-based; conditions: test peptide 10 micrograms per ml; 6 days post-infection; triplicate
Structure (SMILES),"viability at 144 h, 10 micrograms per ml [1] [%]",% inhibition (Pseudomonas aeruginosa) [%],viability at 10 micrograms per ml (in vitro [2]) [%],viability at 144 h (in vitro [3]) [%],% inhibition (MRSA) [%],% inhibition (Streptococcus pneumoniae) [%],% CPE reduction in HIV-1 infected CEM-SS cells (HIV-1IIIB) [%]
CC[C@H](C)[C@H](NC(=O)[C@H](Cc1ccccc1)NC(=O)[C@H](CCC(=O)O)NC(=O)[C@H](CCCCN)NC(=O)[C@H](C)NC(=O)[C@H](C)NC(=O)[C@H](CCC(N)=O)NC(=O)CNC(=O)[C@H](CCC(=O)O)NC(=O)[C@H](CC(C)C)NC(=O)[C@H](Cc1ccc(O)cc1)NC(=O)[C@H](CO)NC(=O)[C@H](CO)NC(=O)[C@@H](NC(=O)[C@H](CC(=O)O)NC(=O)[C@H](CO)NC(=O)[C@@H](NC(=O)[C@H](Cc1ccccc1)NC(=O)[C@@H](NC(=O)CNC(=O)[C@H](CCC(=O)O)NC(=O)[C@H](C)NC(=O)[C@H](Cc1c[nH]cn1)NC(=O)[C@H](CCCNC(=N)N)NC(=O)[C@H](CCC(=O)O)NC(=O)[C@H](Cc1ccccc1)NC(=O)[C@H](CCC(=O)O)NC(=O)[C@H](CC(=O)O)NC(=O)[C@@H](N)Cc1c[nH]cn1)[C@@H](C)O)[C@@H](C)O)C(C)C)C(=O)N[C@@H](C)C(=O)N[C@@H](Cc1c[nH]c2ccccc12)C(=O)N[C@@H](CC(C)C)C(=O)N[C@H](C(=O)N[C@@H](CCCCN)C(=O)NCC(=O)N[C@@H](CCCNC(=N)N)C(=O)NCC(=O)O)C(C)C [GLP-1],95.8,0.0,100,100,0.0,0.0,
Cc1cn([C@H]2C[C@H](N=[N+]=[N-])[C@@H](CO)O2)c(=O)[nH]c1=O [AZT],,,,,,,99
